The source of these data is patent US8026252B2 (priority 2005, dated 2011).

Molecules are shown by their SMILES.

T1 sequence (P35372 whole entry): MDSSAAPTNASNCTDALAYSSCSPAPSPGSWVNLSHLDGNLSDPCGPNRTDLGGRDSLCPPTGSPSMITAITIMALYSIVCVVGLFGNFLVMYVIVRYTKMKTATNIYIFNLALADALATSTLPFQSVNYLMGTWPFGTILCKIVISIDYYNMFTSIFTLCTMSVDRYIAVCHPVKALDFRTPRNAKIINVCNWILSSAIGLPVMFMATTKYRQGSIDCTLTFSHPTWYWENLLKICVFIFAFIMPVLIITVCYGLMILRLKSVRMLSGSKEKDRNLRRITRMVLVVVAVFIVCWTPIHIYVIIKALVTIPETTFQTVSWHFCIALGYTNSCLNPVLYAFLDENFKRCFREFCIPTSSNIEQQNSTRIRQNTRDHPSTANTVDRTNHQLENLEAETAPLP

One experiment concerns the target T1, human μ opioid receptor (Homo sapiens, UniProt P35372).
T1 construct: expressed in transfected cells
Description: biochemical. In kind it is binding. To be noted: [3H]DAMGO (μ).
On to `O=C(NCCc1ccc(-c2ccccc2)cc1)c1ccc2c3c1OC1C(=O)CCC4(O)C(C2)N(CC2CC2)CCC314` (single isomer, unassigned; (-)) [Example 71, (−)-Q-naltrexone], for which the Ki worked out at 1.4 ± 0.12 nM.

The compound `CC[C@@]12CCN(CC3CC3)C(C(=O)c3ccc(C(=O)NCCc4ccc(-c5ccccc5)cc4)cc31)[C@@H]2C` (mixture of isomers) [Example 21, (±)-3-(Cyclopropylmethyl)-6-ethyl-1,2,3,4,5,6-hexaahydro-cis-11-methyl-N-(2-[1,1′-biphenyl]-4-ylethyl)-1-oxo-2,6-methano-3-benzazocine-8-carboxamide] yielded a Ki of 4.9 ± 0.2 nM.

The compound `CC(NC(=O)c1ccc2c(c1)C1(C)CCN(CC3CC3)C(C2)C1C)c1ccccc1` (single isomer, unassigned) [Example 67] gave a Ki of 28 ± 1.4 nM.

In turn, `CC1C2Cc3ccc(C(=O)NCCCCCc4ccccc4)cc3C1(C)CCN2CC1CC1` (racemic) [Example 61] yielded a Ki of 1.7 ± 0.15 nM.

`C[C@H]1C2Cc3ccc(C(=O)NCCCCc4ccccc4)cc3[C@@]1(C)CCN2CC1CC1` [Example 60] registered a Ki of 4.3 ± 0.42 nM.

With `CC1C2Cc3ccc(C(=O)NCCc4cccnc4)cc3C1(C)CCN2CC1CC1` (racemic) [Example 69], the Ki stood at 120 ± 3.6 nM.

With `C[C@H]1C2Cc3ccc(C(=O)NCCc4ccc(-c5cccc(Cl)c5)cc4)cc3[C@@]1(C)CCN2CC1CC1` [Example 50], the Ki turned out to be 0.56 ± 0.087 nM.

For `CC(CNC(=O)c1ccc2c(c1)[C@@]1(C)CCN(CC3CC3)C(C2)[C@@H]1C)c1ccc(-c2ccccc2)cc1` (stereo partly drawn) [Example 46], the Ki amounted to 18 ± 1.1 nM.

For `CC(NC(=O)c1ccc2c(c1)C1(C)CCN(CC3CC3)C(C2)C1C)c1ccccc1` (single isomer, unassigned) [Example 68], the Ki came to 62 ± 3.3 nM.

`O=C(NCCc1ccc(-c2ccccc2)cc1)c1ccc2c(c1)[C@@]13CCCC[C@@]1(O)[C@@H](C2)N(CC1CCC1)CC3` [Example 79, (−)-Q-butorphanol]: the Ki was determined as 0.32 ± 0.048 nM.

For `O=C1CC[C@@]2(O)[C@H]3Cc4ccc(C(=O)NCCc5ccc(-c6ccccc6)cc5)c(O)c4[C@@]2(CCN3CC2CC2)C1` [Example 81, Q-naltrexone ring opened], the Ki came to 0.71 ± 0.091 nM.

Consider `CC1C2C(=O)c3ccc(C(=O)NCCc4ccc(-c5ccccc5)cc4)cc3C1(C)CCN2CC1CC1` (stereo not drawn) [Example 20], for which the Ki stood at 3.1 ± 1.3 nM.

Consider `C[C@H]1C2Cc3ccc(C(=O)NCCc4ccc(C(=O)NCCc5ccc(Br)cc5)cc4)cc3[C@@]1(C)CCN2CC1CC1` [Example 53], for which the Ki stood at 1.5 ± 0.18 nM.

The experiment is the same for the next values; noted with them: read-out: [3H]DAMGO (μ).
Regarding `CC1[C@@H]2Cc3ccc(C(=O)NCCc4ccccc4-c4ccccc4)cc3[C@@]1(C)CCN2CC1CC1` (mixture of isomers) [Example 26, (±)-3-(Cyclopropylmethyl)-1,2,3,4,5,6-hexahydro-cis-6,11-dimethyl-N-(2-(biphenyl-2-yl)ethyl)-2,6-methano-3-benzazocine-8-carboxamide], the Ki amounted to 6.7 ± 0.49 nM.

Consider `CC1[C@@H]2Cc3ccc(C(=O)NCCc4ccc5ccccc5c4)cc3[C@@]1(C)CCN2CC1CC1` (mixture of isomers) [Example 37, (±)-3-(Cyclopropylmethyl)-1,2,3,4,5,6-hexahydro-cis-6,11-dimethyl-N-(2-(naphthalen-2-yl)ethyl)-2,6-methano-3-benzazocine-8-carboxamide], for which the Ki stood at 0.18 ± 0.009 nM.

With `CC1[C@@H]2Cc3ccc(C(=O)NCCc4ccc(Oc5ccccc5)cc4)cc3[C@@]1(C)CCN2CC1CC1` (mixture of isomers) [Example 33, (±)-3-(Cyclopropylmethyl)-1,2,3,4,5,6-hexahydro-cis-6,11-dimethyl-N-(4-phenoxyphenethyl)-2,6-methano-3-benzazocine-8-carboxamide], the Ki was 0.059 ± 0.017 nM.

In the case of `CC1[C@@H]2Cc3ccc(C(=O)NCCc4cccc(Oc5ccccc5)c4)cc3[C@@]1(C)CCN2CC1CC1` (mixture of isomers) [Example 34, (±)-3-(Cyclopropylmethyl)-1,2,3,4,5,6-hexahydro-cis-6,11-dimethyl-N-(3-phenoxyphenethyl)-2,6-methano-3-benzazocine-8-carboxamide], the Ki was 0.54 ± 0.16 nM.

For `CC1[C@@H]2Cc3ccc(C(=O)NCCc4ccc(Cc5ccccc5)cc4)cc3[C@@]1(C)CCN2CC1CC1` (mixture of isomers) [Example 27, (±)-3-(Cyclopropylmethyl)-1,2,3,4,5,6-hexahydro-cis-6,11-dimethyl-N-(4-benzylphenethyl)-2,6-methano-3-benzazocine-8-carboxamide], the Ki came to 0.23 ± 0.032 nM.

Turning to `CC1[C@@H]2Cc3ccc(C(=O)NCCc4cccc(Br)c4)cc3[C@@]1(C)CCN2CC1CC1` (mixture of isomers) [Example 30, (±)-3-(Cyclopropylmethyl)-1,2,3,4,5,6-hexahydro-cis-6,11-dimethyl-N-(3-bromophenethyl)-2,6-methano-3-benzazocine-8-carboxamide], the Ki is 0.35 ± 0.021 nM.

`C[C@H]1C2Cc3ccc(C(=O)NCCc4ccc(-c5ccc(Cl)cc5)cc4)cc3[C@@]1(C)CCN2CC1CC1` [Example 49]: the Ki was 0.2 ± 0.038 nM.

`Cc1ccc(-c2ccc(CCNC(=O)c3ccc4c(c3)[C@@]3(C)CCN(CC5CC5)C(C4)[C@@H]3C)cc2)cc1` [Example 51]: the Ki was 0.29 ± 0.075 nM.

For `CC1[C@@H]2Cc3ccc(C(=O)NCCCc4ccc5ccccc5c4)cc3[C@@]1(C)CCN2CC1CC1` (mixture of isomers) [Example 38, (±)-3-(Cyclopropylmethyl)-1,2,3,4,5,6-hexahydro-cis-6,11-dimethyl-N-(3-(naphthalen-2-yl)propyl)-2,6-methano-3-benzazocine-8-carboxamide], the Ki came to 1.9 ± 0.19 nM.

Take `CC1[C@@H]2Cc3ccc(C(=O)NCCc4ccccc4Oc4ccccc4)cc3[C@@]1(C)CCN2CC1CC1` (mixture of isomers) [Example 35, (±)-3-(Cyclopropylmethyl)-1,2,3,4,5,6-hexahydro-cis-6,11-dimethyl-N-(2-phenoxyphenethyl)-2,6-methano-3-benzazocine-8-carboxamide]: the Ki came to 0.63 ± 0.09 nM.

Turning to `CC1[C@@H]2Cc3ccc(C(=O)NCCc4ccc(Br)cc4)cc3[C@@]1(C)CCN2CC1CC1` (mixture of isomers) [Example 29, (±)-3-(Cyclopropylmethyl)-1,2,3,4,5,6-hexahydro-cis-6,11-dimethyl-N-(4-bromophenethyl)-2,6-methano-3-benzazocine-8-carboxamide], the Ki is 2.4 ± 0.33 nM.

Take `CC1[C@@H]2Cc3ccc(C(=O)NCCc4cccc5ccccc45)cc3[C@@]1(C)CCN2CC1CC1` (mixture of isomers) [Example 40, (±)-3-(Cyclopropylmethyl)-1,2,3,4,5,6-hexahydro-cis-6,11-dimethyl-N-(2-(naphthalen-1-yl)ethyl)-2,6-methano-3-benzazocine-8-carboxamide]: the Ki came out at 4.2 ± 0.13 nM.

On to `CC1[C@@H]2Cc3ccc(C(=O)NCCc4cccc(-c5ccccc5)c4)cc3[C@@]1(C)CCN2CC1CC1` (mixture of isomers) [Example 25, (±)-3-(Cyclopropylmethyl)-1,2,3,4,5,6-hexahydro-cis-6,11-dimethyl-N-(2-(biphenyl-3-yl)ethyl)-2,6-methano-3-benzazocine-8-carboxamide], for which the Ki worked out at 0.95 ± 0.15 nM.

On to `CC1[C@@H]2Cc3ccc(C(=O)NCCc4ccccc4)cc3[C@@]1(C)CCN2CC1CC1` (mixture of isomers) [Example 11, (±)-3-(Cyclopropylmethyl)-1,2,3,4,5,6-hexahydro-cis-6,11-dimethyl-N-(2-phenylethyl)-2,6-methano-3-benzazocine-8-carboxamide], for which the Ki worked out at 3.5 ± 0.27 nM.

Regarding `CC1[C@@H]2Cc3ccc(C(=O)NCCc4ccccc4Br)cc3[C@@]1(C)CCN2CC1CC1` (mixture of isomers) [Example 52, (±)-3-(Cyclopropylmethyl)-1,2,3,4,5,6-hexahydro-cis-6,11-dimethyl-N-(2-bromophenethyl)-2,6-methano-3-benzazocine-8-carboxamide], the Ki was found to be 4 ± 0.36 nM.

Regarding `COc1ccc(-c2ccc(CCNC(=O)c3ccc4c(c3)[C@@]3(C)CCN(CC5CC5)C(C4)[C@@H]3C)cc2)cc1` [Example 48], the Ki was found to be 0.084 ± 0.012 nM.

For `CC1[C@@H]2Cc3ccc(C(=O)NCCCc4ccccc4)cc3[C@@]1(C)CCN2CC1CC1` (mixture of isomers) [Example 12, (±)-3-(Cyclopropylmethyl)-1,2,3,4,5,6-hexahydro-cis-6,11-dimethyl-N-(3-phenylpropyl)-2,6-methano-3-benzazocine-8-carboxamide], the Ki was found to be 2.5 ± 0.27 nM.

Consider `CC1[C@@H]2Cc3ccc(C(=O)NCCCc4ccc5ccccc5c4)cc3[C@@]1(C)CCN2CC1CC1` (mixture of isomers) [Example 41, (±)-3-(Cyclopropylmethyl)-1,2,3,4,5,6-hexahydro-cis-6,11-dimethyl-N-(3-(naphthalen-2-yl)propyl)-2,6-methano-3-benzazocine-8-carboxamide], for which the Ki worked out at 2.4 ± 0.45 nM.

The next experiment deals with mice.
Assay: not given
To be noted: 1 mg/kg ip in mice; cited from earlier work.
Turning to `C[C@H]1C2Cc3ccc(C(N)=O)cc3[C@@]1(C)CCN2CC1CC1` [Example 8-CAC, 8-carboxamidocyclazocine], the duration of action was 15 h.

Regarding `C[C@H]1[C@H]2Cc3ccc(O)cc3[C@]1(C)CCN2CC1CC1` [cyclazocine], the duration of action is 2 h.

Still in this experiment, the particulars now being: background; cited from earlier work.
Turning to `C[C@H]1C2Cc3ccc(C(N)=O)cc3[C@@]1(C)CCN2CC1CC1` [Example 8-CAC, 8-carboxamidocyclazocine], the “antinociception activity in vivo” value is reported as “high antinociception activity”.

A further experiment concerns κ opioid receptors.
Assay: not given
To be noted: background, U.S. Pat. No. 6,784,187; cited from earlier work.
As to `C[C@H]1C2Cc3ccc(C(N)=O)cc3[C@@]1(C)CCN2CC1CC1` [Example 8-CAC, 8-carboxamidocyclazocine], the “affinity for κ opioid receptors” value is reported as “high affinity”.

The next experiment deals with guinea pig μ receptors.
Assay: not given
The conditions noted are these: background, U.S. Pat. No. 6,784,187; cited from earlier work.
For `C[C@H]1C2Cc3ccc(C(N)=O)cc3[C@@]1(C)CCN2CC1CC1` [Example 8-CAC, 8-carboxamidocyclazocine], the “affinity for μ opioid receptors” value is “high affinity”.
